According to patent publication US20060276393A1, “Novel compositions for preventing and treating neurodegenerative and blood coagulation disorders” (Sirtris Pharmaceuticals, Inc., priority 2005, published 2006):

How the values were obtained:
[1] = system: acetylated K382 of p53 in U2OS osteosarcoma cells; test: p53 Ac-K382 Western blot after UV radiation; assay type: cell-based, human
Method: FdL (200 μM) is added to growth media and cells incubated for 1-3 hours to allow FdL to enter the cells and the lysine-deacetylated product (deAc-FdL) to accumulate intracellularly. Cells are lysed with detergent in the presence of 1 μM TSA, 1 mM nicotinamide. […] Cells were grown adherently in DMEM/10% FCS and treated for 1 hour with 200 μM FdL, 1 μM TSA and either vehicle (0.5% final DMSO, Control) or 500 μM of the indicated compound. Intracellular accumulation of deAc-FdL was then determined as described briefly in a. […] Lysates were prepared and analyzed as above.

D. melanogaster = D. melanogaster lifespan; assay type: in vivo
Method: Females (a) and males (b) with loss-of-function genotype dSir2^4.5/dSir2^5.26. Females (c) and males (d) with strong hypomorphic genotype dSir2^17/dSir2^KG00871.
Survival assays were conducted independently with adult D. melanogaster in two laboratories. In the first laboratory, all trials used an yw marked wild-type strain. Larvae were reared on standard cornmeal-sugar-yeast (CSY) agar diet (cornmeal 5%, sucrose 10.5%, SAF yeast 2%, and agar 0.7%). Newly eclosed adults were placed in 1 L demography cages with approximately 75 males and 75 females. Three to four replicate 1 L demography cages were used for each treatment group in each trial. Every two days, dead flies were removed and scored, and food vials were replenished. Food vials contained cornmeal-sugar-yeast diet with SAF yeast as either 2% or 3% by weight. Test compounds in 100 μl of EtOH (or blank EtOH in controls) were mixed into melted aliquots of the adult food media to make a final concentration of 0, 10 or 100 μM. Fresh stock solutions and adult media were prepared weekly. In the second laboratory, lifespan trials were conducted with the wild type strain Canton-S, dSir2^4.5 and dSir2^5.26 (S. Smolik, University of Oregon), dSir2^17 (S. Astrom, Stockholm University, Sweden), and dSir2^KG00871 (Drosophila Stock Center, Bloomington, Ind.). Larvae for all tests were reared on standard cornmeal-sugar-yeast diet. Newly eclosed adults were incubated in plastic shell vials containing 5 ml of 15% sugar-yeast diet (15% SY) or 5% sugar-yeast (5% SY) diet (15% SY: 15% yeast, 15% sucrose, 2% agar; 5% SY: 5% yeast, 5% sucrose, 2% agar as per Ref. ^20). In all trials, ˜20 males with ˜20 females were placed into each of 10 vials/treatment group. Every two days, flies were passed into new vials and dead flies were counted. […] Final compound concentrations were 0, 10, 100 or 200 μM. Fresh stock solution and adult media was prepared weekly.

[2] = system: thoracic spinal cord of EAE SJL/J mice; test: EAE spinal cord white matter damage; assay type: in vivo, mouse
Excerpt: At day 40 post-immunization, mice from each group are sacrificed with an overdose of ketamine/xylazine. Spinal cords are dissected, fixed in 10% buffered formalin, and embedded in paraffin. Five micron thick sections are stained with Hematoxylin and Eosin (H&E) and Luxol Fast Blue (LFB) to assess myelin loss. Bielshowesky's silver impregnation is used to evaluate axonal integrity. To asses the amount of axonal loss, paraffin sections are exposed to monoclonal antibodies against mouse non-phosphorylated neurofilament H (Clone SMI-32, Stemberger Monoclonals, Baltimore, USA) and monoclonal antibodies against APP (Clone 22C11, Chemicon). SMI-32 is detected with a Cy3-labeled antibody and visualized by fluorescence microscopy. Anti-APP antibodies are detected by incubation with ColonoPAP, and APP-positive axons are visualized with 3,3′-diaminobenzidine (DAB).
The percentage of the spinal cord showing damage was determined in the cervical, thoracic and lumbar cord. At each level, regions in the 1) dorsal columns and 2) the lateral and ventral white matter tracts containing damaged fibers was circumscribed on photomontages (final magnification ×100) of the entire spinal cord. Damaged areas in each of the two regions were measured using a SummaSketch III (Summagraphics, Seymour, Conn.) digitizing tablet and BIOQUANT Classic 95 software (R&M Biometrics, Nashville, Tenn.). Measurements were also be made of the total area (damaged and nondamaged) of the 1) dorsal columns and 2) the lateral and ventral columns. For each section (one section per animal), the cumulative percent lesion areas were calculated for each region (dorsal column, lateral and ventral columns).

`Oc1ccc(/C=C/c2cc(O)cc(O)c2)cc1` [Resveratrol, 3,5,4′-Trihydroxy-trans-stilbene] was tested, and the “level of Ac-K382 of p53” value ([1]; 0.5 μM resveratrol, 4 hours pre-treatment, UV) was “marked decrease in the level of Ac-K382”, the “level of Ac-K382 of p53” value ([1]; >50 μM resveratrol) was “the effect was reversed” and the “increased lifespan (maximum)” value (D. melanogaster; Canton-S/dSir2^KG0087) was “up to 17%”. The “lifespan in flies lacking or severely decreased in dSir2” value (D. melanogaster; dSir2^4.5/dSir2^5.26 or dSir2^17/dSir2^KG00871, 100 μM) was “failed to extend lifespan”, the “longevity in flies homozygous for a hypomorphic dSir2 allele” value (D. melanogaster; dSir2^KG0087/dSir2^KG0087) was “a small but statistically significant amount” and the “longevity on restricted diet” value (D. melanogaster; restricted diet) was “neither resveratrol nor fisetin further increased longevity”. For the same compound, the “lifespan extended (maximum)” value (D. melanogaster; wild type Canton-S and yw, males and females, normal diet) was “up to 29%”, the “degree of damage in dorsal, lateral and ventral white matter” value ([2]; resveratrol 200 mg/kg) was “slightly increased, albeit not significantly” and the “reduction of degree of damage in dorsal, lateral and ventral white matter” value ([2]; resveratrol 400 mg/kg, significant) was “approximately 40%”.
